Reference: patent US4522815A, “Anthracycline glycosides” (priority 1982, dated 1985)
Values after ≈ are worked out from the molar mass of the structure shown.

How the values were obtained:
ascitic P388 leukemia = assay: Antitumor activity against ascitic P388 leukemia in CDF-1 mice, treatment i.p. on day 1; assay type: in vivo; conditions: Table 5; 0.75 mg/kg i.p. day 1
Protocol: The primary screening […] was carried out in CDF-1 mice bearing ascitic P388 leukemia (10^6 cells/mouse). Both IIa and IIc were suspended in 10%. Tween 80 and injected intraperitoneally.
Results of the primary screening "in vivo" carried out in CDF-1 mice bearing P388 ascitic leukemia and treated i.p. the day after tumor transplantation, are reported in Table 5.
Antitumor activity against ascitic P388 leukekemia.
(§1) Treatment i.p. on day 1.
^a median survival time; % over untreated controls
^b long term survivors (≥ 60 days)
^c evaluated on the basis of autoptic findings on dead mice
(§2) ^d data of two experiments (range)
^e date of three experiments (range)
Antitumor activity of Ib and Id against ascitic P388
as §1

HeLa cells = assay: Colony inhibition test against HeLa cells in vitro (cloning efficiency), treatment for 24 hrs; assay type: cell-based; conditions: Homo sapiens, HeLa, 24 h, Table 3, 24 hrs
Gross leukemia [1] = assay: Oral activity against i.v. transplanted Gross leukemia (i.v. comparators); assay type: in vivo, C3H/Me mice; conditions: Table 7, oral +1
Description: Results of studies performed in C3H/Me mice carrying i.v. transplanted Gross leukemia and treated i.v. the day after tumor transplantation, are reported in Table 6. […] The compounds Ib and Id were further investigated for oral activity on Gross leukemic transplanted i.v., in comparison with DNR, DX given i.v. and 4-dm DNR given oral route.
Oral activity of Ib and Id against Gross leukemia
^a days after transplantation
as §2

Gross leukemia [2] = conditions: already demonstrated; cited from earlier work

CC(=O)[C@]1(O)Cc2c(O)c3c(c(O)c2[C@@H](O[C@H]2C[C@H](N)[C@H](O)[C@H](C)O2)C1)C(=O)c1ccccc1C3=O [4-dm DNR, 4-demethoxy DNR, reference compound]
LTS, long term survivors (≥ 60 days) (ascitic P388 leukemia): 0/8
T/C, median survival time; % over untreated controls (ascitic P388 leukemia): 163%
Toxic deaths (autoptic findings on dead mice) (ascitic P388 leukemia): 0/8
activity at 0.0031 µg/mL (HeLa cells; 3.1 ng/ml, read-out: No of colonies, % of untreated controls): 84%
activity at 0.0062 µg/mL (HeLa cells; 6.2 ng/ml, read-out: No of colonies, % of untreated controls): 53%
activity at 0.0125 µg/mL (HeLa cells; 12.5 ng/ml, read-out: No of colonies, % of untreated controls): 18%
activity at 0.025 µg/mL (HeLa cells; 25 ng/ml, read-out: No of colonies, % of untreated controls): 0%
IC50 (HeLa cells; HeLa colony inhibition, read-out: ID50 (the source's name)): ~6.3 ng/mL (≈ 0.0127 µM)
T/C %, median survival time (Gross leukemia [1]; 3 mg/kg): 150%
Toxic deaths (Gross leukemia [1]; 3 mg/kg): 0/6
T/C %, median survival time (Gross leukemia [1]; 3.6 mg/kg): 150%
Toxic deaths (Gross leukemia [1]; 3.6 mg/kg): 0/6
T/C %, median survival time (Gross leukemia [1]; 4.3 mg/kg): 216%
Toxic deaths (Gross leukemia [1]; 4.3 mg/kg): 0/3
activity by oral route (Gross leukemia [2]): active by oral route
